From patent US7494996B2 (priority 2000, dated 2009)

Columns and labels:
Sphaerotheca fuliginea = test: Cucumber Powdery Mildew (CPM) protectant test in the greenhouse; type: in vivo; settings: 300 g/ha, 100 is total disease control, 0 is no disease control
In short: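 Protectant format: one day after spraying with test compound (A/M/W 1:1:2), cotyledon-plus-one-leaf cucumber plants were misted with Sphaerotheca spores at 2×10^5/ml. Greenhouse disease development; percent control scored at day 7 (100 = total, 0 = none).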

Pyricularia oryzae = test: whole plant or invertebrate; type: in vivo; settings: protectant, 300 g/ha, greenhouse; 100 is total disease control, 0 is no disease control
Two-Spotted Spider Mite = test: Protocol 1 Two-Spotted Spider Mite (MTA) foliar spray test; type: in vivo, Tetranychus urticae; settings: percentage of mites killed 1-day post-treatment
Experimental: (§1) A test solution containing 1250 parts per million (ppm) was prepared by dissolving the test compound in […] of a second solvent (acetone: water, 1:1) to give an acetone:water: methanol system of 50: 40:10.
(§2) The enclosed spraying chamber consisted of a single spray nozzle mounted on a boom moving at a fixed speed and distance over stationary targets. The vertical distance from the nozzle tip to the targets was adjusted to give rates varying from 150 g/ha to 600 g/ha
A pad of moistened cotton was placed in a Petri dish. A 1-inch square section cut from a fully expanded primary lima bean (Phaseolus limensis) leaf was positioned bottom side up on the moist cotton. The leaf square was infested with approximately 50 adult female mites. The dishes were sprayed with the test solutions and held at 27° C. for mortality determination 1-day post-treatment. The percentage of mites killed were rated from 100% (all dead) to 0% (all alive).

Southern Armyworm = test: Protocol 1 Southern Armyworm (AW) foliar spray test; type: in vivo, Spodoptera eridania
Experimental: as §1, §2
(§3) Individual fully expanded primary lima bean (Phaseolus limensis) leaves were placed bottom side up on moistened pieces of filter paper in Petri dishes. The leaves were sprayed with the test solutions and allowed to dry. The dishes were infested with 5 third instar larvae of the southern armyworm, covered with the lids, and held at 27° C. Armyworm control was rated by visual inspection after 48 hours. […] A rating of 0 indicated no dead larvae and normal feeding. Intermediate control was indicated by intermediate ratings.

Mexican Bean Beetle = test: Protocol 1 Mexican Bean Beetle (BB) foliar spray test; type: in vivo, Epilachna verivestis; settings: control rated after 48 hours (100 = all larvae dead)
Experimental: as §1, §2
as §3, with “mexican bean beetle,” for “southern armyworm,”, “Bean beetle” for “Armyworm”

| SMILES | Cucumber Powdery Mildew (CPM) protectant fungicide data, percent control (Sphaerotheca fuliginea) [percent control] | Rice Blast (RB) protectant fungicide data, percent control (Pyricularia oryzae) [percent control] | MTA (Two-Spotted Spider Mite; Protocol 1, DOSE 150) [%] | AW (Southern Armyworm; Protocol 1, DOSE 150) | BB (Mexican Bean Beetle; Protocol 1, DOSE 150) | AW (Southern Armyworm; Protocol 1, DOSE 300) | BB (Mexican Bean Beetle; Protocol 1, DOSE 300) | MTA (Two-Spotted Spider Mite; Protocol 1, DOSE 300) [%] |
| --- | --- | --- | --- | --- | --- | --- | --- | --- |
| CCCCN1N=C(c2cccc(Cl)c2)NCC1=O [Compound 110] | 90 | 99 | 100 | – | – | – | – | – |
| Cc1cccc(N2N=C(c3cccc(Cl)c3)NCC2=O)c1 [Compound 112] | 80 | 85 | 0 | – | – | – | – | – |
| COC(=O)C(=O)N1CC(=O)N(CC(F)(F)F)N=C1c1cc(Cl)cc(Cl)c1 [Compound 123] | 50 | 95 | 0 | – | – | – | – | – |
| C=COC(=O)N1CC(=O)N(CCCC)N=C1c1cc(Cl)cc(Cl)c1 [Compound 127] | 50 | 95 | 95 | – | – | – | – | – |
| C#CCOC(=O)N1CC(=O)N(CCCC)N=C1c1cc(Cl)cc(Cl)c1 [Compound 133] | 0 | 80 | 0 | – | – | – | – | – |
| C=CCOC(=O)N1CC(=O)N(CCCC)N=C1c1cc(Cl)cc(Cl)c1 [Compound 135] | 50 | 90 | 43 | – | – | – | – | – |
| O=C1CNC(c2cc3ccccc3s2)=NN1CC(F)(F)F [Compound 163] | 0 | 90 | 100 | – | – | – | – | – |
| O=c1cnc(-c2ccc(Cl)cc2)nn1C1CCCCC1 [Compound 256] | – | 95 | 90 | 0 | 0 | – | – | – |
| CCCCCCCCn1nc(-c2ccc(Cl)cc2)ncc1=O [Compound 259] | 75 | 90 | 0 | – | – | – | – | – |
| CCCCCCCCCCn1nc(-c2ccc(Cl)cc2)ncc1=O [Compound 260] | 0 | 75 | 0 | – | – | – | – | – |
| CCCCCCn1nc(-c2ccc(Cl)cc2)ncc1=O [Compound 262] | 80 | 85 | 0 | – | – | – | – | – |
| C[Si](C)(C)Cn1nc(-c2ccc(Cl)cc2)ncc1=O [Compound 265] | 90 | 85 | 0 | – | – | – | – | – |
| O=c1cnc(-c2ccc(Cl)cc2)nn1Cc1ccc(Cl)s1 [Compound 266] | 50 | 90 | 0 | – | – | – | – | – |
| CCCCn1nc(-c2ccc(Cl)c(Cl)c2)ncc1=O [Compound 270] | 95 | 100 | 0 | – | – | – | – | – |
| CCCCn1nc(-c2cc(Cl)cc(Cl)c2)ncc1=O [Compound 271] | 50 | 99 | 93 | – | – | – | – | – |
| Cc1nc(-c2ccc(Cl)cc2)nn(CC(F)(F)F)c1=O [compound 239] | – | – | – | – | – | 0 | 75 | 0 |
| Cn1nc(-c2ccccc2)ncc1=O [compound 242] | – | – | – | – | – | 0 | 90 | 100 |
